Tested on: SEM cells
Test: cell viability relative to DMSO control; higher = less cytotoxic
Conditions: 48 h
In short: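 Leukemia cells (NOMO1 or SEM, 500 cells/well; P12-Ichikawa, 1000 cells/well) were seeded in 5 μl in 1536-well plates after at least four passages of adaptation to each medium. They received library compounds in DMSO by pin dosing, 11 threefold points from 47 μM to 0.79 nM. Luminescence with CellTiter-Glo One was read after 48 h at 37°C. Viability is stated per plate relative to DMSO wells, with cell-free wells as background.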

[1] = HPLM + 10% dialyzed FBS, 0.000781 µM
[2] = HPLM + 10% dialyzed FBS, 0.00234 µM
[3] = HPLM + 10% dialyzed FBS, 0.00702 µM
[4] = HPLM + 10% dialyzed FBS, 0.0211 µM
[5] = HPLM + 10% dialyzed FBS, 0.0632 µM
[6] = HPLM + 10% dialyzed FBS, 0.19 µM
[7] = HPLM + 10% dialyzed FBS, 0.569 µM
[8] = HPLM + 10% dialyzed FBS, 1.71 µM
[9] = HPLM + 10% dialyzed FBS, 5.12 µM
[10] = HPLM + 10% dialyzed FBS, 15.4 µM
[11] = HPLM + 10% dialyzed FBS, 46.1 µM
[12] = RPMI 5 mM glucose + 10% FBS, 0.000781 µM
[13] = RPMI 5 mM glucose + 10% FBS, 0.00234 µM
[14] = RPMI 5 mM glucose + 10% FBS, 0.00702 µM
[15] = RPMI 5 mM glucose + 10% FBS, 0.0211 µM
[16] = RPMI 5 mM glucose + 10% FBS, 0.0632 µM
[17] = RPMI 5 mM glucose + 10% FBS, 0.19 µM
[18] = RPMI 5 mM glucose + 10% FBS, 0.569 µM
[19] = RPMI 5 mM glucose + 10% FBS, 1.71 µM
[20] = RPMI 5 mM glucose + 10% FBS, 5.12 µM
[21] = RPMI 5 mM glucose + 10% FBS, 15.4 µM
[22] = RPMI 5 mM glucose + 10% FBS, 46.1 µM
[23] = RPMI 5 mM glucose + 10% dialyzed FBS, 0.000781 µM
[24] = RPMI 5 mM glucose + 10% dialyzed FBS, 0.00234 µM
[25] = RPMI 5 mM glucose + 10% dialyzed FBS, 0.00702 µM
[26] = RPMI 5 mM glucose + 10% dialyzed FBS, 0.0211 µM
[27] = RPMI 5 mM glucose + 10% dialyzed FBS, 0.0632 µM
[28] = RPMI 5 mM glucose + 10% dialyzed FBS, 0.19 µM
[29] = RPMI 5 mM glucose + 10% dialyzed FBS, 0.569 µM
[30] = RPMI 5 mM glucose + 10% dialyzed FBS, 1.71 µM
[31] = RPMI 5 mM glucose + 10% dialyzed FBS, 5.12 µM
[32] = RPMI 5 mM glucose + 10% dialyzed FBS, 15.4 µM
[33] = RPMI 5 mM glucose + 10% dialyzed FBS, 46.1 µM

SMILES | cell viability [1] [%] | cell viability [2] [%] | cell viability [3] [%] | cell viability [4] [%] | cell viability [5] [%] | cell viability [6] [%] | cell viability [7] [%] | cell viability [8] [%] | cell viability [9] [%] | cell viability [10] [%] | cell viability [11] [%] | cell viability [12] [%] | cell viability [13] [%] | cell viability [14] [%] | cell viability [15] [%] | cell viability [16] [%] | cell viability [17] [%] | cell viability [18] [%] | cell viability [19] [%] | cell viability [20] [%] | cell viability [21] [%] | cell viability [22] [%] | cell viability [23] [%] | cell viability [24] [%] | cell viability [25] [%] | cell viability [26] [%] | cell viability [27] [%] | cell viability [28] [%] | cell viability [29] [%] | cell viability [30] [%] | cell viability [31] [%] | cell viability [32] [%] | cell viability [33] [%]
CC(C)(C)NC(=O)[C@@H]1CN(Cc2cccnc2)CCN1C[C@@H](O)C[C@@H](Cc1ccccc1)C(=O)N[C@H]1c2ccccc2C[C@H]1O.O=S(=O)(O)O | 73.5 | 89.2 | 93.5 | 100 | 94.1 | 96.5 | 104 | 90.9 | 93.3 | 90.3 | 78.7 | 109 | 99.5 | 104 | 114 | 107 | 108 | 112 | 122 | 95.6 | 92.1 | 54.5 | 102 | 102 | 109 | 119 | 94.9 | 118 | 122 | 112 | 96.9 | 90.4 | 62.8
Cc1ccc(-c2ncn(-c3ccc(Nc4nccc(-c5cccc(N6CCOCC6)c5)n4)cc3)n2)cn1 | 75.3 | 93 | 103 | 94.5 | 70.9 | 65.3 | 4.95 | 3.93 | 3.48 | 3.55 | 6.89 | 90.3 | 98.9 | 101 | 104 | 75.1 | 32.3 | 5.46 | 4.61 | 3.18 | 3.66 | 5.27 | 81.6 | 95.5 | 90.7 | 94.4 | 66.9 | 48 | 5.8 | 4.65 | 4.48 | 3.85 | 5.94
CC(C)NCC(O)c1ccc(NS(C)(=O)=O)cc1 (stereo not drawn) | 110 | 110 | 93 | 106 | 111 | 124 | 108 | 105 | 111 | 116 | 108 | 109 | 104 | 117 | 106 | 109 | 101 | 96.2 | 87.1 | 92.7 | 97.2 | 107 | 107 | 99.1 | 97.4 | 104 | 111 | 105 | 111 | 106 | 106 | 109 | 105
CC(C)NCC(O)COc1ccc(CCOCC2CC2)cc1 (stereo not drawn) | 94.9 | 94.5 | 101 | 107 | 106 | 116 | 99.1 | 90.4 | 107 | 91.4 | 95.1 | – | – | – | – | – | – | – | – | – | – | – | 115 | 104 | 110 | 113 | 109 | 113 | 125 | 114 | 97.6 | 105 | 108
CCCCCCCCCCCCCCCCCCOP(=O)([O-])OC1CC[N+](C)(C)CC1 | 82.4 | 112 | 97.5 | 88.7 | 103 | 101 | 109 | 106 | 87.4 | 82.4 | 73.8 | 91.9 | 104 | 100 | 95.3 | 120 | 108 | 104 | 102 | 98.2 | 98.4 | 73.7 | 101 | 96.9 | 98 | 84.3 | 99.9 | 94.9 | 101 | 99.9 | 87.6 | 82 | 60.2
O=[N+]([O-])c1cnc(Sc2nnc(O)n2-c2ccc3c(c2)OCCO3)s1 | 90.4 | 69.9 | 80.1 | 82.6 | 73.2 | 86.9 | 102 | 84.3 | 83.2 | 2.06 | 2.49 | 87.5 | 70.9 | 87.6 | 87.8 | 89 | 88.6 | 100 | 73.1 | 71.4 | 2.18 | 2.5 | 82.7 | 67.9 | 81.6 | 84.1 | 77.4 | 88.2 | 85.1 | 86.7 | 77.9 | 2.08 | 2.84
CC1(C)CC(O)CC(C)(C)N1[O] | 87.2 | 80.3 | 89.8 | 86.9 | 81.6 | 89.1 | 44.7 | 94.3 | 89.5 | 92.1 | 84.2 | 102 | 114 | 96.3 | 105 | 98.6 | 96.6 | 27.7 | 101 | 113 | 103 | 99.5 | 98.6 | 94.6 | 97.8 | 97.5 | 94.3 | 95.4 | 32.7 | 106 | 108 | 102 | 85.4
O=C(CCCCCCC(=O)Nc1ccccc1)NO | 77.1 | 112 | 102 | 103 | 124 | 116 | 108 | 108 | 18.8 | 7.11 | 5.17 | 94.2 | 116 | 135 | 123 | 111 | 118 | 125 | 127 | 25 | 6.63 | 5.85 | 62.6 | 100 | 106 | 109 | 114 | 106 | 121 | 103 | 16.4 | 6.03 | 4.79
